This passage reports EC50 results from patent US20220213061A9, “HETEROCYCLIC COMPOUNDS FOR MODULATING NR2F6” (TES Pharma S.r.l., priority 2020, published 2022).

Usually pEC50 stands for the EC50 on a negative log10 scale, so that one unit is a factor of ten.

pEC50: −log10 of the molar value. Structures can show the parent of a compound that is named as a salt.

The target of the test is T1, recombinant human NR2F6 protein (Homo sapiens, UniProt P10588).
T1 sequence (P10588 1-404): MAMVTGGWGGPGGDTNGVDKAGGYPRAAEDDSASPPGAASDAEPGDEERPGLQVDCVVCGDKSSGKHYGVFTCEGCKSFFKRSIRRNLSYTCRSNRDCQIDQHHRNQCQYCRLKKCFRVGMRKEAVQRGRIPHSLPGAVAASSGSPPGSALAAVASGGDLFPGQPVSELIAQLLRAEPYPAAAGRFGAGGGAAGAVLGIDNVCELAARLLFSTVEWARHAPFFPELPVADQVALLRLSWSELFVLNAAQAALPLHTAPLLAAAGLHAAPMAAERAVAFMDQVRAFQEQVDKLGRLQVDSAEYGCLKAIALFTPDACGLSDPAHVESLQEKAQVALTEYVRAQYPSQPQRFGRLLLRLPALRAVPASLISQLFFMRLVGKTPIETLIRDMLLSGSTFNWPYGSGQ
The test can be described thus: Biochemical NR2F6 binding assay (EnSpire label-free). The note with it: label-free binding to immobilized purified recombinant human NR2F6; ligands 1 nM to 100 uM, 1% DMSO. The method, then: Purified recombinant human NR2F6 protein was dissolved in immobilization buffer at pH 4.5 and then immobilized in EnSpire-LFB High-Sensitivity User-Activated Plates at the concentration of 50 μg/well plate and left in incubation for 16 h at 4° C. Wells with only immobilization buffer were used as negative control to check the protein coating efficiency. NR2F6 ligands were resuspended in DMSO at the concentration of 10 mM, then dispensed into a plate containing assay buffer at concentrations ranging from 1 nM to 100 uM using an HP-dispenser. DMSO was normalized at the 1% of volume of each well. The final readings were taken over a period of 30 minutes. The label-free responses were measured as shifts in reflected wavelength and are expressed in picometers (pm). Results were analyzed using the EnSpire label-free user interface software, and EC50 and graphs were generated using GraphPad PRISM software. In the tables below, A is <1 μM; B is 1 to 10 μM; C is 10 to 50 μM; and D is >50 μM.
Consider `O=C(Nc1cccc(-c2ccc(F)nc2)c1)[C@@H]1CNC[C@H]1c1ccccc1` (racemic) [Compound I-26, (±)-trans-N-[3-(6-Fluoropyridin-3-yl)phenyl]-4-phenylpyrrolidine-3-carboxamide], for which the negative-log EC50 (pEC50) is 5.00 to 6.00. With `O=C(Nc1cccc2ccccc12)[C@@H]1CNC[C@H]1c1ccc(C(F)(F)F)cc1` [Compound I-110, (3S,4R)—N-(Naphthalen-1-yl)-4-[4-(trifluoromethyl)phenyl]pyrrolidine-3-carboxamide hydrochloride], the pEC50 is 5.00 to 6.00. Turning to `O=C(Nc1ccc(-c2ccc(C(F)(F)F)nc2)cc1)[C@@H]1CNC[C@H]1c1ccccc1` [Compound I-103, (3S,4R)-4-Phenyl-N-[4-[6-(trifluoromethyl)pyridin-3-yl]phenyl]pyrrolidine-3-carboxamide hydrochloride], the pEC50 was over 6.00. With `O=C(Nc1cccc2ncccc12)[C@@H]1CNC[C@H]1c1ccccc1` (racemic) [Compound I-17, (±)-trans-4-Phenyl-N-(quinolin-5-yl)pyrrolidine-3-carboxamide dihydrochloride], the pEC50 was 4.30 to 5.00. As to `O=C(Nc1cccc(-c2cccnc2)c1)[C@@H]1CN(C2CCOCC2)C[C@H]1c1ccccc1` (racemic) [Compound I-54, (±)-trans-4-Phenyl-N-[3-(pyridin-3-yl)phenyl]-1-(tetrahydro-2H-pyran-4-yl)pyrrolidine-3-carboxamide], the negative-log EC50 (pEC50) was under 4.30. The figure for `O=C(Nc1cccc(Oc2cccnc2)c1)[C@@H]1CNC[C@H]1c1ccccc1` (racemic) [Compound I-52, dihydrochloride] is under 4.30. The result for `O=C(NCc1cccc2cnccc12)[C@@H]1CNC[C@H]1c1ccccc1` [Compound I-95, (3S,4R)—N-(Isoquinolin-5-ylmethyl)-4-phenylpyrrolidine-3-carboxamide dihydrochloride] reads 5.00 to 6.00. The result for `O=C(Nc1cccc2c1OCCO2)[C@H]1CNC[C@@H]1c1ccccc1` (racemic) [Compound I-65, (±)-trans-N-(2,3-Dihydro-1,4-benzodioxin-5-yl)-4-phenylpyrrolidine-3-carboxamide hydrochloride] reads under 4.30; that for `O=C(Nc1ccccc1Oc1cccnc1)[C@H]1CNC[C@@H]1c1ccccc1` (racemic) [Compound I-68, (±)-trans-4-Phenyl-N-[2-(pyridin-3-yloxy)phenyl]pyrrolidine-3-carboxamide dihydrochloride], 5.00 to 6.00; that for `O=C(Nc1cc2ccccc2cn1)[C@@H]1CNC[C@H]1c1ccccc1` [Compound I-43, (3S,4R)—N-(Isoquinolin-3-yl)-4-phenylpyrrolidine-3-carboxamide dihydrochloride], 5.00 to 6.00.

Turning to `O=C(Nc1cccc2cnccc12)[C@@H]1CNC[C@@H]1c1ccccc1` [Compound I-66, (3S,4S)—N-(Isoquinolin-5-yl)-4-phenylpyrrolidine-3-carboxamide dihydrochloride], the negative logarithm of the EC50 (pEC50) was under 4.30. As for `O=C(Nc1cccc2ccccc12)[C@H]1CNC[C@@H]1c1ccc(C(F)(F)F)cc1` [Compound I-109, (3R,4S)—N-(Naphthalen-1-yl)-4-[4-(trifluoromethyl)phenyl]pyrrolidine-3-carboxamide hydrochloride], the pEC50 is 5.00 to 6.00. For `O=C(c1cccc2cnccc12)[C@H]1CNC[C@@H]1c1ccccc1` (racemic) [Compound I-100, (±)-trans Isoquinolin-5-yl[(3S,4R)-4-phenylpyrrolidin-3-yl]methanone dihydrochloride], the negative-log EC50 (pEC50) is 5.00 to 6.00.

Turning to `O=C(Nc1cccc(Oc2ccncc2)c1)[C@H]1CNC[C@@H]1c1ccccc1` (racemic) [Compound I-98, (±)-trans-4-Phenyl-N-[3-(pyridin-4-yloxy)phenyl]pyrrolidine-3-carboxamide dihydrochloride], the pEC50 was under 4.30. Consider `O=C(Nc1cccc(Nc2ccccc2)c1)[C@H]1CNC[C@@H]1c1ccccc1` (racemic) [Compound I-89, (±)-trans-4-Phenyl-N-[3-(phenylamino)phenyl]pyrrolidine-3-carboxamide hydrochloride], for which the pEC50 was over 6.00.

Consider `S=C(Nc1cccc2cnccc12)O[C@@H]1CNC[C@H]1c1ccccc1` (racemic) [Compound I-2, (±)-trans-O-(4-Phenylpyrrolidin-3-yl) isoquinolin-5-ylcarbamothioate], for which the negative-log EC50 (pEC50) is 5.00 to 6.00. The figure for `Cc1ccc(Oc2cccc(NC(=O)[C@H]3CNC[C@@H]3c3ccccc3)c2)cn1` (racemic) [Compound I-105, (±)-trans-4-Phenyl-N-{3-[(6-methylpyridin-3-yl)oxy]phenyl}pyrrolidine-3-carboxamide dihydrochloride] is 5.00 to 6.00; for `O=C(N[C@@H]1CNC[C@H]1c1ccccc1)c1cccc2cnccc12` (racemic) [Compound I-9, (±)-trans-N-(4-Phenylpyrrolidin-3-yl)isoquinoline-5-carboxamide] it is 5.00 to 6.00. `O=C(N[C@H]1C[C@H](c2ccccc2)C1)[C@@H]1CNC[C@H]1c1ccccc1` [Compound I-117, (3S,4R)-4-Phenyl-N-(trans-3-phenylcyclobutyl)pyrrolidine-3-carboxamide hydrochloride]: the pEC50 is 5.00 to 6.00.

Consider `O=C(Nc1cccc(Cc2ccccc2)c1)[C@@H]1CNC[C@H]1c1ccccc1` (racemic) [Compound I-85, (±)-trans-N-(3-Benzylphenyl)-4-phenylpyrrolidine-3-carboxamide hydrochloride], for which the pEC50 was 5.00 to 6.00.

Regarding `O=C(N[C@H]1C[C@H](Oc2ccc(F)nc2)C1)[C@@H]1CNC[C@H]1c1ccccc1` (racemic) [Compound I-116, (±)-trans-N-{trans-3-[(6-Fluoropyridin-3-yl)oxy]cyclobutyl}-4-phenylpyrrolidine-3-carboxamide dihydrochloride], the pEC50 is 4.30 to 5.00. Regarding `O=C(Nc1ccc(-c2cccnc2)cc1)[C@@H]1CNC[C@H]1c1ccccc1` (racemic) [Compound I-25, (±)-trans-4-Phenyl-N-[4-(pyridin-3-yl)phenyl]pyrrolidine-3-carboxamide dihydrochloride], the negative-log EC50 (pEC50) is 5.00 to 6.00.

For the molecule `O=C(Nc1cccc2cnccc12)[C@H]1CNC[C@@H]1c1nccs1` [Compound I-58, (3R,4R)—N-(Isoquinolin-5-yl)-4-(1,3-thiazol-2-yl)pyrrolidine-3-carboxamide dihydrochloride], the negative-log EC50 (pEC50) was under 4.30.

Regarding `O=C(N[C@H]1CC[C@H](O)CC1)[C@H]1CNC[C@@H]1c1ccccc1` [Compound I-36, (3R,4S)—N-[(1,4-trans)-4-Hydroxycyclohexyl]-4-phenylpyrrolidine-3-carboxamide hydrochloride], the negative-log EC50 (pEC50) is under 4.30. Take `O=C(Nc1cccc(-c2cccnc2)c1)[C@@H]1CN(Cc2ccccc2)C[C@H]1c1ccccc1` (racemic) [Compound I-63, (±)-trans-1-Benzyl-4-phenyl-N-[3-(pyridin-3-yl)phenyl]pyrrolidine-3-carboxamide]: the negative-log EC50 (pEC50) is 5.00 to 6.00. The result for `O=C(Nc1cccc(-c2ccccc2)c1)[C@@H]1CNC[C@H]1c1ccccc1` (racemic) [Compound I-13, (±)-trans-N-(Biphenyl-3-yl)-4-phenylpyrrolidine-3-carboxamide] reads 5.00 to 6.00; that for `O=C(Nc1cccc(Oc2ccc(C(F)(F)F)nc2)c1)[C@@H]1CNC[C@H]1c1ccccc1` [Compound I-120, (3S,4R)-4-Phenyl-N-(3-{[6-(trifluoromethyl)pyridin-3-yl]oxy}phenyl) pyrrolidine-3-carboxamide dihydrochloride], 5.00 to 6.00; that for `O=C(Nc1cccc2cnccc12)[C@@H]1CNC[C@H]1c1cccs1` [Compound I-56, (3S,4S)—N-(Isoquinolin-5-yl)-4-(thiophen-2-yl)pyrrolidine-3-carboxamide], under 4.30. For the molecule `O=C(Nc1cccc(Oc2ccc(F)cc2)c1)[C@H]1CNC[C@@H]1c1ccccc1` (racemic) [Compound I-93, (±)-trans-N-[3-(4-Fluorophenoxy)phenyl]-4-phenylpyrrolidine-3-carboxamide hydrochloride], the pEC50 is over 6.00. Consider `O=C(NCc1ccncc1)[C@H]1CNC[C@@H]1c1ccccc1` [Compound I-31, (3R,4S)-4-Phenyl-N-(pyridin-4-ylmethyl)pyrrolidine-3-carboxamide dihydrochloride], for which the pEC50 is 5.00 to 6.00. As to `O=C(Nc1ncc(-c2cccnc2)s1)[C@@H]1CNC[C@H]1c1ccccc1` (racemic) [Compound I-20, (±)-trans-4-Phenyl-N-[5-(pyridin-3-yl)-1,3-thiazol-2-yl]pyrrolidine-3-carboxamide], the pEC50 was 5.00 to 6.00.

In the case of `O=C(Nc1cccc2cnccc12)[C@@H]1CNC[C@H]1c1ccccc1` (racemic) [Compound I-21, (±)-trans-N-(Isoquinolin-5-yl)-4-phenylpyrrolidine-3-carboxamide dihydrochloride], the pEC50 is 5.00 to 6.00.
